Measurements published in PMC5131364, “Pharmacologic modulation of RORγt translates to efficacy in preclinical and translational models of psoriasis and inflammatory arthritis” (Scientific Reports, 2016).

Test system: human CD4+ T cells under Treg polarizing conditions
Experiment: Human Treg in vitro differentiation
Assay type: cell-based
Conditions: 6 days, 1 μM
Method: Mouse CD4+ T cell in vitro Th1 differentiation
Total CD4+ T cells were isolated from splenocytes of C57/BL6 mice (Chareles River Labrotory) using a CD4+ T cell isolation kit (Miltenyl Biotec, Auburn, CA), following the manufacturer’s instructions. Cells were resuspended in culture medium (described in Method section of Th17 differentiation) and were added to 96‐well plates at 2x10^5 per well. Titrated JNJ‐54271074 was added to each well at final DMSO concentration of 0.2%. Cells were incubated for 1 hour, after which Th1 cell differentiation medium was added with final concentrations of 1 µg/ml anti‐CD3, 5 µg/mL anti‐CD28 (BD Pharmingen, San Diego, CA), 10 µg/ml anti‐IL4, 10 ng/mL IL‐12, (R&D Systems, Minneapolis, MN). Cells were cultured at 37 °C and 5% CO2 for 3 days. Supernatants were collected and the accumulated cytokines in culture were measured by ELISA kits (R&D Systems, Minneapolis, MN) following manufacturers' instructions.
IL‐23 induced IL‐17A and IL‐22 production in mouse splenocytes splenocytes were isolated from C57/BL6 mice and resuspended in medium and cultured in 96‐well plates at […] per 100 µL per well. […] Supernatants were collected and the accumulated cytokines in culture were measured by ELISA according to the manufacturer’s instructions (IL‐17A kit from R&D systems, and IL‐22 from Biolegend San Diego). […]

`COc1nc2ccc([C@@](O)(c3ccc(C)nc3C)c3cnnn3C)cc2c(Cl)c1Cc1ccc(C(F)(F)F)cc1` [JNJ-54271074] was tested, and the “mRNA expression of FOXP3” value was “slightly increased” and the “percentage of FOXP3+ T cell” value was “no impact”.
